Results on 6 molecules are retold here after patent publication US10639251B2, “Method for inhibiting or masking fishy odours” (Symrise AG, priority 2015, dated 2020).

Experiment [1] concerns the target T1, hTAAR5 (Homo sapiens, UniProt O14804).
T1 construct: expressed in transfected cells; host or cells: HANA3A cells
T1 sequence (O14804 1-337): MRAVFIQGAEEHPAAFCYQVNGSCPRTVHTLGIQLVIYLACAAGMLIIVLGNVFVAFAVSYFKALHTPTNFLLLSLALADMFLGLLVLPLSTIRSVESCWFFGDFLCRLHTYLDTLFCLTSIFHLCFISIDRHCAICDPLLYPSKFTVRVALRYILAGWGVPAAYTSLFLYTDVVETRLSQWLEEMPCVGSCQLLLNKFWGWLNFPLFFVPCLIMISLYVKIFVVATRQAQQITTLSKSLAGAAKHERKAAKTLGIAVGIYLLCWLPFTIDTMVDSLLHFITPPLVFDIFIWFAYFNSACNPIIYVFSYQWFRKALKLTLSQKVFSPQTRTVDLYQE
Particulars: agonist; cited from earlier work.

The test system of a further experiment is panelists. The experiment in a line: Olfactory detection threshold of TMA, 3-alternative forced-choice, ISO 13301. The experiment is classed as in vivo, human. Particulars: for olfactory detection threshold of TMA: buffered aqueous solution pH 9. Here is the method:
In addition, olfactory detection thresholds were assessed in aqueous solutions using a best estimate threshold approach as described in ISO 13301. In brief, samples containing different concentrations of analyte were presented in ascending order in a 3-alternative forced-choice design. Each concentration set consisted of three samples with one deviating sample containing a defined amount of trimethylamine. Samples were presented in amber vials (30 ml) coded with three digits and filled with 10 ml of solution, and panelists were required to designate the sample that differed from the others.
Thresholds of TMA were measured in buffered aqueous solution i) without additive ii) with 1% (m/m) Timberol® and iii) with 0.1% Mugetanol (isointense to 1% Timberol®). These experiments were performed separately on different days with the same panelists. In the case of testing in the presence of fragrance components (Timberol® or Mugetanol), all three samples of a given concentration set contained the same amount of fragrance components and differed only in the presence/absence of TMA. In each session, a total of 10 concentration sets ranging from […] to 1.00×10^−5% (m/m) TMA were evaluated. The concentration doubled in each step.
The aqueous solutions were buffered with TRIS (50 mM), and the pH was adjusted to 9 to have approximately 13% of the TMA in a deprotonated and thus volatile form. Furthermore, an odorless emulsifier was added to a final concentration of 3% (m/m) to dissolve Timberol®.
In a second step, the influence of Timberol® on the perception of TMA was investigated using a psychophysical approach. Therefore the detection thresholds of TMA alone and in the presence of suprathreshold concentrations of Timberol® were tested. Threshold measurements were performed in a 3-alternative forced-choice design according to ISO 13301. A total of 10 concentrations (binary dilution steps) ranging from […] to 1.00×10^−5% (m/m) TMA were examined.

The subject of another experiment is humans. Particulars: in vivo; cited from earlier work.
Another experiment concerns the target T2, MOR42-3 (Mus musculus, UniProt E9PX47).
T2 construct: CRE-luciferase readout normalized to Renilla
T2 sequence (E9PX47 1-334): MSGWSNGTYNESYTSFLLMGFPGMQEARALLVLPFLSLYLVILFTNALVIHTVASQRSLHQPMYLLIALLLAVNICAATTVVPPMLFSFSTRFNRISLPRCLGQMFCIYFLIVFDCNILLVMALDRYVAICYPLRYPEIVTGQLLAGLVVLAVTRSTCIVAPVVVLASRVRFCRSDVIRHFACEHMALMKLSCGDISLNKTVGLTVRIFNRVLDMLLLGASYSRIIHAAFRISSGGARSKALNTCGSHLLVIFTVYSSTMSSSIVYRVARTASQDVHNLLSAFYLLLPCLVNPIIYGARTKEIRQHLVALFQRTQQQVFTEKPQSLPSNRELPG
The experiment in a line: Cre-luciferase reporter gene assay, concentration-response curve of azelaic acid on MOR42-3 (Dual-Glo Luciferase, transfected HANA3A cells). The note with it: agonist alone; murine olfactory receptor MOR42-3 recombinantly expressed in HANA3A cells with RTP1S, G-protein αolf, pGL4-luciferase and pRL-TK-Renilla reporters; 4 h at 37° C.; Hill fit; n=3 in duplicate; FIG. 4A left. Type of experiment: cell-based. Here is the method: (§1) In order to identify suitable antagonist for TMA the protocol of Zhuang and Matsunami for measuring receptor activity with the Dual-Glo Luciferase Assay System (Promega) was adapted [see Nat. Protoc. 3(9), p. 1402-1413 (2008)]. HANA3A cells were maintained under standard conditions in DMEM supplemented with 10% FBS and 100 units/ml penicillin and streptomycin at 37° C. Cells (approximately 15,000 cells/well) were plated on poly-D-lysine-coated 96-well plates (NUNC) and transfected after 24 h with the FuGENE® HD (Promega) transfection reagent according to the manufacturer's protocol. […] Expression rates of Cre-luciferase were monitored by luminescent enzymatic reactivity. Thus, luminescence signals correlate with receptor activation. […]
(§2) For statistical analysis of Cre-luciferase assay data, two-tailed unpaired Student's t-test. […] Sensory data was analyzed using non-parametric statistical tests. The overall difference between the group thresholds was determined by a Kruskal-Wallis test, followed by a Dunn post-hoc test for the respective pairwise comparisons.
(§3) Another experiment was directed to figure out whether the Timberol® block is exclusively mediated by hTAAR5. […] Then the impact of Timberol® on MOR42-3- and hOR51E1-mediated responses to the respective agonists was tested with concentrations below and above the calculated EC50 values. […]
Background: A reporter such as luciferase makes a cellular process visible.

The target of a further experiment is T3, hOR51E1 (Homo sapiens, UniProt Q8TCB6).
T3 sequence (Q8TCB6 1-318): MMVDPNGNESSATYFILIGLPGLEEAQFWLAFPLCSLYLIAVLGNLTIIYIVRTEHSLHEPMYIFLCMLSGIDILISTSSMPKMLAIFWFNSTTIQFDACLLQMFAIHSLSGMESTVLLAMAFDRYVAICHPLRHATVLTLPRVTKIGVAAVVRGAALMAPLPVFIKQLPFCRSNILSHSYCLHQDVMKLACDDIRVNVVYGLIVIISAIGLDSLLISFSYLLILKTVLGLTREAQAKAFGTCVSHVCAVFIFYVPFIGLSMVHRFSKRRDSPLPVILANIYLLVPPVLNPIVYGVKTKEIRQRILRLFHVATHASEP
The experiment in a line: Cre-luciferase reporter gene assay, concentration-response curve of nonanoic acid on hOR51E1 (Dual-Glo Luciferase, transfected HANA3A cells). Type of experiment: cell-based. Further details: expressed in transfected cells; host or cells: HANA3A. The note with it: agonist alone; human olfactory receptor hOR51E1 recombinantly expressed in HANA3A cells with RTP1S, G-protein αolf, M3 muscarinic acetylcholine receptor, pGL4-luciferase and pRL-TK-Renilla reporters; 4 h at 37° C.; Hill fit; n=3 in duplicate; FIG. 4B left. Here is the method:
as §1, §2, §3

In experiment [2] the target is T1, hTAAR5. As to the kind of experiment: Cre-luciferase reporter gene assay, hTAAR5-mediated responses to TMA in transfected HANA3A cells. Type of experiment: cell-based. The note with it: TMA 300 μM, putative antagonist 100 μM. Here is the method:
In order to identify suitable antagonist for TMA the protocol of Zhuang and Matsunami for measuring receptor activity with the Dual-Glo Luciferase Assay System (Promega) was adapted [see Nat. Protoc. 3(9), p. 1402-1413 (2008)]. HANA3A cells were maintained under standard conditions in DMEM supplemented with 10% FBS and 100 units/ml penicillin and streptomycin at 37° C. Cells (approximately 15,000 cells/well) were plated on poly-D-lysine-coated 96-well plates (NUNC) and transfected after 24 h with the FuGENE® HD (Promega) transfection reagent according to the manufacturer's protocol. In a 96-well plate, we placed 18 μl transfection reagent, 1-5 μg receptor plasmid, 2 μg pGL4-luciferase reporter, 1 μg pRL-TK-Renilla reporter, 0.5 μg G-protein αolf, 1 μg receptor transport protein (RTP1S) and 1 μg M3 muscarinic acetylcholine receptor (for hOR51E1) to ensure cell surface expression. Cells were stimulated 24 h after transfection for 4 h at 37° C. with test substances diluted in CD 293 medium (1×) (Life Technologies) with 2 mM L-glutamine (Life Technologies) added. After stimulation with test substances, recombinant hTAAR5 activation elevated cAMP and the subsequent expression of the cAMP-dependent reporter gene construct Cre-luciferase. Expression rates of Cre-luciferase were monitored by luminescent enzymatic reactivity. Thus, luminescence signals correlate with receptor activation. The Renilla luciferase reporter driven by a constitutively active TK-promoter (pRL-TK-Renilla) served as an internal control to determine cell viability and transfection efficiency. Firefly luciferase activity to the Renilla luciferase signal was normalized for all wells. The ratios of antagonistic stimulation were normalized to the ratios of agonist stimulation. Furthermore, mock-transfected cells were stimulated to exclude unspecific responses to the tested substances.
To identify blocker substances for hTAAR5-mediated responses to TMA, the Cre-luciferase reporter gene assay was used. Human TAAR5-transfected HANA3A cells were stimulated with a mix of the agonist TMA (300 μM) and 100 μM of a potential blocker substance (FIG. 1).
For more detailed information concerning the type of antagonism (competitive vs. non-competitive) in the following experiments, the pharmacological profile of Timberol® was characterized. To test the concentration dependency of the Timberol® block, a concentration-inhibition curve (FIG. 2a) was measured. The blocking effect was increased with increasing concentrations of Timberol® and decreased with increasing concentrations of the agonist TMA. The latter was reflected by a significant concentration-inhibition curve shift.

Consider `CCN(C)C` [DMEA, dimethylethylamine], for which the “activation of hTAAR5” value on hTAAR5 [1] is “less efficacy and potency”.

Take `CN(C)C` [TMA, trimethylamine, reference compound]: the “olfactory detection threshold of TMA” value is 2.0×10^−7 % (m/m) with panelists (TMA alone) and 1.0×10^−6 % (m/m) in the experiment on panelists (in the presence of Timberol (1% m/m)). In addition, the “detection threshold in humans” value with humans is reported as 0.00047 ppm. Further, the “activation of hTAAR5” value on hTAAR5 [1] is given as “specifically activated”.

In general, EC50 refers to the concentration needed to bring the measured effect to its halfway point. With `O=C(O)CCCCCCCC(=O)O` [Azelaic acid, azelaic acid], the EC50 at MOR42-3 was found to be 2.67 ± 0.47 µM.

Turning to `CCCCCCCCC(=O)O` [Nonanoic acid, nonanoic acid], at hOR51E1, the half-maximal effective concentration (EC50) is 103 ± 23.1 µM.

As for `CN` [methylamine], the “detection threshold in humans” value in the experiment with humans is on record as 180 ppm.

Take `CC(C)C1CCC(C(C)O)CC1` (stereo not shown) [Mugetanol, reference compound]: the “influence of additive on TMA detection threshold / perception” value with panelists (1% Timberol or 0.1% Mugetanol (isointense)) is “does not influence significantly”. Further, the “reduction / inhibition of hTAAR5-mediated TMA responses” value at hTAAR5 [2] is on record as “does not inhibit”.
